Results published in patent publication US9446039B2, “Aminoheteroaryl compounds as MTH1 inhibitors” (CEMM—FORSCHUNGSZENTRUM FÜR MOLEKULARE MEDIZIN GMBH, priority 2012, dated 2016).

Experiments:
Type in all cases: binding
[1] = target: T1, SW480 colon carcinoma cells lysate proteins (Homo sapiens, UniProt P22314); conditions: PreyGene UBA1
T1 sequence (P22314 1-1058): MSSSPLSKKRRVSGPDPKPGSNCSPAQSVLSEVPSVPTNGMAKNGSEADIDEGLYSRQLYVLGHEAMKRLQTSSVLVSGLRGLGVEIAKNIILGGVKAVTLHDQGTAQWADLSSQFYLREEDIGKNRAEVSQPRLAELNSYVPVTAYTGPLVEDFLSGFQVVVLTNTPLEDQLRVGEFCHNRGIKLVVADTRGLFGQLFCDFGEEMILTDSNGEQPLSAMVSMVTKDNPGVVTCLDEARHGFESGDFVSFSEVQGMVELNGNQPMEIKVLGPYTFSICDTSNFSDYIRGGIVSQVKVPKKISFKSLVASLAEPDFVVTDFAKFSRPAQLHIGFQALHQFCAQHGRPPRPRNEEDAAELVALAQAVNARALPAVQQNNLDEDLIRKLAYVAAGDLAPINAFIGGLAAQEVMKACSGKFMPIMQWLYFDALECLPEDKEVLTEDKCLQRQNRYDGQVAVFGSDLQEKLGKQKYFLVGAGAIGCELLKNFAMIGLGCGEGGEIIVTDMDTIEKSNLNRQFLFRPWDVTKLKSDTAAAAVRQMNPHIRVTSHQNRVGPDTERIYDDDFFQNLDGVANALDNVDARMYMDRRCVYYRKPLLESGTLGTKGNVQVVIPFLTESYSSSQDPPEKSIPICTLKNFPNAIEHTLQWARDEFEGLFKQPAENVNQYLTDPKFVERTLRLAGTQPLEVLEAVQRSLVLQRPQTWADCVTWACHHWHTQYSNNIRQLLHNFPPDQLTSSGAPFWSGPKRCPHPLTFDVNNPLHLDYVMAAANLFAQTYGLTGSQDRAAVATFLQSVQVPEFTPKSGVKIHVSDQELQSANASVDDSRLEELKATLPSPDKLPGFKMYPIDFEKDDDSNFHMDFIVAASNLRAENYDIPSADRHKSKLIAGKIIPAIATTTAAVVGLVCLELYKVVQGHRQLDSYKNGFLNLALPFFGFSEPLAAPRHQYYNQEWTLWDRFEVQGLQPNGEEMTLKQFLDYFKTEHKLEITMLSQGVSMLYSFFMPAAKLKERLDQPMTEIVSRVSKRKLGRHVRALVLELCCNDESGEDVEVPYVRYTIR

[2] = target: SW480 colon carcinoma cells lysate proteins (Homo sapiens, UniProt P68366); conditions: PreyGene TUBA4A; SW480 cells
Chain of SW480 colon carcinoma cells lysate proteins (Homo sapiens, UniProt P68366) (P68366 whole entry): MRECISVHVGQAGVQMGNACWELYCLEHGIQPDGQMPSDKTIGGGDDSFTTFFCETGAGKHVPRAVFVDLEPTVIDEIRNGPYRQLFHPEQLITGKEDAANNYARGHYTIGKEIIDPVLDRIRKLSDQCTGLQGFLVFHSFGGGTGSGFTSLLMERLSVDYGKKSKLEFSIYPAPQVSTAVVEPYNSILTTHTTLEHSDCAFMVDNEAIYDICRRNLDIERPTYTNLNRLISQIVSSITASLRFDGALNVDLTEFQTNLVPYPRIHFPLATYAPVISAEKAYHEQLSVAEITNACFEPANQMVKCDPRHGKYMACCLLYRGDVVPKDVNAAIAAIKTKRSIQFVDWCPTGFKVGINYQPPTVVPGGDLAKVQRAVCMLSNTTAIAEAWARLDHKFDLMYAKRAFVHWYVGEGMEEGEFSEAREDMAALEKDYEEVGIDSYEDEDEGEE

[3] = target: SW480 colon carcinoma cells lysate proteins (Homo sapiens, UniProt Q14204); conditions: PreyGene DYNC1H1
Chain of SW480 colon carcinoma cells lysate proteins (Homo sapiens, UniProt Q14204) (Q14204 whole entry): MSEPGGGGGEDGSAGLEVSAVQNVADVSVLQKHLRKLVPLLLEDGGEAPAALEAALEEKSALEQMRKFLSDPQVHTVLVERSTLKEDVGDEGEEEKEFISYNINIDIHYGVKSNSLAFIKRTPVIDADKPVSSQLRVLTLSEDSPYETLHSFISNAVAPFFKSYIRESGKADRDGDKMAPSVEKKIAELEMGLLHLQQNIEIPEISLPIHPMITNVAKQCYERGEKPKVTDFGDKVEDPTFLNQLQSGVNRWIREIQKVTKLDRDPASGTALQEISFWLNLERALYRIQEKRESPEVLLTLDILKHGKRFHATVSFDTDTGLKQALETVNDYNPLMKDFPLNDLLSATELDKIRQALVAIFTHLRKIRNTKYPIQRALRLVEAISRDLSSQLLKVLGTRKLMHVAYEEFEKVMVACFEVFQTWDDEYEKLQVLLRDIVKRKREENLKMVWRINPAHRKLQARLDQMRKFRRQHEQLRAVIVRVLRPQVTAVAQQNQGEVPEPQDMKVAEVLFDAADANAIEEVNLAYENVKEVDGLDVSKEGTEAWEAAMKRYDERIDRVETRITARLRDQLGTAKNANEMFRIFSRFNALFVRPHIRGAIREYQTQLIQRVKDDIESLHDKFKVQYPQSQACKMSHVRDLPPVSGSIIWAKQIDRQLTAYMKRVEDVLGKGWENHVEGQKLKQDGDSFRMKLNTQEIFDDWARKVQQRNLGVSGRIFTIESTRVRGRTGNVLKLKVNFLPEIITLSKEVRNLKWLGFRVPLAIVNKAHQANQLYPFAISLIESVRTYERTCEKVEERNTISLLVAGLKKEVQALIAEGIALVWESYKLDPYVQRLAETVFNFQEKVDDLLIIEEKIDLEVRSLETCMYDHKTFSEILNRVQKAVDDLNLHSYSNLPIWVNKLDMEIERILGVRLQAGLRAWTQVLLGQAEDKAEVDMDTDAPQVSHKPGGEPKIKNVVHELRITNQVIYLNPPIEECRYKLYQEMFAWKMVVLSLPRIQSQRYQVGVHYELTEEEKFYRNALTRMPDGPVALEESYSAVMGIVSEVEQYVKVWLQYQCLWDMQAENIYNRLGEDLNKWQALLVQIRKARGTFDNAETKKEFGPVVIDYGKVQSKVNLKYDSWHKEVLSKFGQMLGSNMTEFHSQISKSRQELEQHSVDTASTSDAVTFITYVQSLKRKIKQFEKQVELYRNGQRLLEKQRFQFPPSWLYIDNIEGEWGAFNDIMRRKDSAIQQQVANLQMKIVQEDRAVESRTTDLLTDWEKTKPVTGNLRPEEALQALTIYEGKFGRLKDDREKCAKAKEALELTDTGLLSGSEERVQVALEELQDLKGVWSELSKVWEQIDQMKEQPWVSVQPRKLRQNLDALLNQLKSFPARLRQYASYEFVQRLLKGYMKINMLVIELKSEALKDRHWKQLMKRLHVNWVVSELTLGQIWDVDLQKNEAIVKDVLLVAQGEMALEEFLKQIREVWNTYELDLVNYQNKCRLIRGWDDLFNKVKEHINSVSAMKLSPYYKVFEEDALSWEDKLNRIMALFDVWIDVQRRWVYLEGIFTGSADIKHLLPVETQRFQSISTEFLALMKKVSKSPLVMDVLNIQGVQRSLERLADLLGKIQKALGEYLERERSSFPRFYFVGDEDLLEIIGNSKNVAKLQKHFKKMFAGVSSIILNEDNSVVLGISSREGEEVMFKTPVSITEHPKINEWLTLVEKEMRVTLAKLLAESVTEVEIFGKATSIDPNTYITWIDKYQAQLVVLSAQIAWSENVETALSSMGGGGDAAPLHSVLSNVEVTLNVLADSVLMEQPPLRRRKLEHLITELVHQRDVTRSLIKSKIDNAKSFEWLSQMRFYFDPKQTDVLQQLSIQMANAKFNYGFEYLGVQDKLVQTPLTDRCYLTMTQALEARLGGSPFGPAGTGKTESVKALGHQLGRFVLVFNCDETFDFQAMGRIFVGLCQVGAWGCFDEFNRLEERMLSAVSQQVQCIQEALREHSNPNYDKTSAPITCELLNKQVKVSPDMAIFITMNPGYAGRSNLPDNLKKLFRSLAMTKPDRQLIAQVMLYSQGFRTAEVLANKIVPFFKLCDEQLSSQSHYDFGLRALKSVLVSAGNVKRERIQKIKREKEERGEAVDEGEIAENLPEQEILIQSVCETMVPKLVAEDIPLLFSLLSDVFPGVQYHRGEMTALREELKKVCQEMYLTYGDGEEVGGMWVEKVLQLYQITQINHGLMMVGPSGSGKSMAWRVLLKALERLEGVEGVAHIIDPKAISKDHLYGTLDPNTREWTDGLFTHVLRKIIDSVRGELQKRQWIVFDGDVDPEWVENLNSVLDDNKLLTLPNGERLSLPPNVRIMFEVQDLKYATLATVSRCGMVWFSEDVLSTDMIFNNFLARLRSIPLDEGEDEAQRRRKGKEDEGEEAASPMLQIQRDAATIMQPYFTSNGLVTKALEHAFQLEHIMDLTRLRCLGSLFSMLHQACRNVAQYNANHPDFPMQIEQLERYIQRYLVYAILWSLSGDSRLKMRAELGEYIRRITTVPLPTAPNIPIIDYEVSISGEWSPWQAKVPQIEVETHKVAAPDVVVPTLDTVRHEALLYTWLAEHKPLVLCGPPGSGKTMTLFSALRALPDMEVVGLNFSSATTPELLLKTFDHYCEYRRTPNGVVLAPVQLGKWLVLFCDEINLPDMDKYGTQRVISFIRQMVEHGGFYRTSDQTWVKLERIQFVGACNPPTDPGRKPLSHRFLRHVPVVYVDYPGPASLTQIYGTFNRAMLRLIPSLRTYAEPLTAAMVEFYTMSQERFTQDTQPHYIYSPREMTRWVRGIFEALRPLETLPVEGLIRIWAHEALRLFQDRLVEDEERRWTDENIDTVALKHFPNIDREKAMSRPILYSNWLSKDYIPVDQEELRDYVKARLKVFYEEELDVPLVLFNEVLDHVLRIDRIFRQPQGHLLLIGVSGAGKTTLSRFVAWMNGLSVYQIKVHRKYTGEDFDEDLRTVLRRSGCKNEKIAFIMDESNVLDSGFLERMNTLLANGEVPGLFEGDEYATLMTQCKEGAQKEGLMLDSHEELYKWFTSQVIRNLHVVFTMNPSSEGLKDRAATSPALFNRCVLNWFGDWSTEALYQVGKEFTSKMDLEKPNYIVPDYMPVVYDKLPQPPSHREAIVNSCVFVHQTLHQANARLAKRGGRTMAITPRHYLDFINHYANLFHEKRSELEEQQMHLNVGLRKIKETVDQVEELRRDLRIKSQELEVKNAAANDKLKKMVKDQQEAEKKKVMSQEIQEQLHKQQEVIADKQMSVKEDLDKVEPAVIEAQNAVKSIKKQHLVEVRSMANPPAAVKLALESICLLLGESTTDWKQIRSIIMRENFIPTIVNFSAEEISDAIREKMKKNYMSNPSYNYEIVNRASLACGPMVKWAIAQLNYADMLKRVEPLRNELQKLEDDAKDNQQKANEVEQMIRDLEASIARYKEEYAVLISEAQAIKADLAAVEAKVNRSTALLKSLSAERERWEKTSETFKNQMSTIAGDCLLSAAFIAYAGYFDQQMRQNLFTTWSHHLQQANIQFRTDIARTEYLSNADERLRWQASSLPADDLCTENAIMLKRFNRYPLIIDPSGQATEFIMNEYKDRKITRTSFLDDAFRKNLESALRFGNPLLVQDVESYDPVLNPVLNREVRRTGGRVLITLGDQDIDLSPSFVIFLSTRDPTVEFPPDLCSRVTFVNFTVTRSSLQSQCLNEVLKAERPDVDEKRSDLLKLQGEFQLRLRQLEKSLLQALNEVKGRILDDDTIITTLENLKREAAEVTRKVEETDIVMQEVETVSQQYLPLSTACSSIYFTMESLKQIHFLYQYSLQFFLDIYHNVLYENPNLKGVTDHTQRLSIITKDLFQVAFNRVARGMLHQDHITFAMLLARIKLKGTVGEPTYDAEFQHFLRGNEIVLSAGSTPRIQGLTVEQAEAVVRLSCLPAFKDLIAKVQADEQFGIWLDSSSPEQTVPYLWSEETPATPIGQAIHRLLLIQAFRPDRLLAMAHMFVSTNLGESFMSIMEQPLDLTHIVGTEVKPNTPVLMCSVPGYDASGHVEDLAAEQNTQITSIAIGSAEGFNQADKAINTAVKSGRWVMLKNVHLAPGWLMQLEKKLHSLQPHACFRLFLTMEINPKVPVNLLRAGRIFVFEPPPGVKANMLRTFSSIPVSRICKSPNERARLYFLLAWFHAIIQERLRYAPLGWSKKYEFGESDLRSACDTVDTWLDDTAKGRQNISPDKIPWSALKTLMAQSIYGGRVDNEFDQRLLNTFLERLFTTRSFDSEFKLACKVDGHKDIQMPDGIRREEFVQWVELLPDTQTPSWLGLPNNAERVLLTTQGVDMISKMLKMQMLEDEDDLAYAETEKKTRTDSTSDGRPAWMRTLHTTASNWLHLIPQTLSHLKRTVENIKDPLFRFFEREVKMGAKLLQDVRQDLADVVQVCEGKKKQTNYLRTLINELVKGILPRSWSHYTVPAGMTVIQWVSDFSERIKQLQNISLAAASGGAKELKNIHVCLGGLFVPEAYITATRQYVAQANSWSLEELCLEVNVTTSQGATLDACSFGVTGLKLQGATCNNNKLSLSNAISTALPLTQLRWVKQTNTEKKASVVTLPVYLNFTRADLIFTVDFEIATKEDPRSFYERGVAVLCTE

[4] = target: T2, SW480 colon carcinoma cells lysate proteins (Homo sapiens, UniProt Q15084); conditions: PreyGene PDIA6
T2 sequence (Q15084 20-440): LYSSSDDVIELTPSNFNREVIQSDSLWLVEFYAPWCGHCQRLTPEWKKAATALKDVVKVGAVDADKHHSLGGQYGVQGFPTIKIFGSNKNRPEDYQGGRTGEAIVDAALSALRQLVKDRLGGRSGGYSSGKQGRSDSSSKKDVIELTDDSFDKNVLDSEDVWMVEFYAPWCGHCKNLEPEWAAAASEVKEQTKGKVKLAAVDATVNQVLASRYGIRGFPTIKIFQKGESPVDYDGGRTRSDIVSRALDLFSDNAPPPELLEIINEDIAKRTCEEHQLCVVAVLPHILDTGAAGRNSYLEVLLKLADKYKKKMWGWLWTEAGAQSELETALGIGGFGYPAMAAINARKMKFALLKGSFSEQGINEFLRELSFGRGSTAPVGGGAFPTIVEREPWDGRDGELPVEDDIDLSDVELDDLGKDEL

[5] = target: T3, SW480 colon carcinoma cells lysate proteins (Homo sapiens, UniProt Q9BRA2); conditions: PreyGene TXNDC17
T3 sequence (Q9BRA2 1-123): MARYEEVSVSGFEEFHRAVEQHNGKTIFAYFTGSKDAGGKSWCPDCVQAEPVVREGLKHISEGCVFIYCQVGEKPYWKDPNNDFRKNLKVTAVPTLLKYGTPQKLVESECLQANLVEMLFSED

C[C@H](Oc1cc(-c2cnn(C3CCNCC3)c2)cnc1N)c1c(Cl)ccc(F)c1Cl [(5)-crizotinib]
AvgP [1]: 0.4997 | SC.Exp. 1-1 [1]: 15 | SC.Exp. 1-2 [1]: 15 | SC.Exp. 2-1 [1]: 0 | SC.Exp. 2-2 [1]: 0 | Sum (SC.Exp.) [1]: 30 | AvgP [2]: 0 | SC.Exp. 1-1 [2]: 22 | SC.Exp. 1-2 [2]: 20 | SC.Exp. 2-1 [2]: 14 | SC.Exp. 2-2 [2]: 12 | SC.Exp. Sum [2]: 68 | AvgP [3]: 0.2458 | SC.Exp. 1-1 [3]: 13 | SC.Exp. 1-2 [3]: 13 | SC.Exp. 2-1 [3]: 2 | SC.Exp. 2-2 [3]: 2 | Sum (SC.Exp.) [3]: 30 | AvgP [4]: 0.4427 | SC.Exp. 1-1 [4]: 3 | SC.Exp. 1-2 [4]: 4 | SC.Exp. 2-1 [4]: 0 | SC.Exp. 2-2 [4]: 0 | Sum (SC.Exp.) [4]: 7 | AvgP [5]: 0.1862 | SC.Exp. 1-1 [5]: 2 | SC.Exp. 1-2 [5]: 3 | SC.Exp. 2-1 [5]: 0 | SC.Exp. 2-2 [5]: 0 | Sum (SC.Exp.) [5]: 5
